Laboratory results taken from ChEMBL document CHEMBL1132350, “Quantitative structure-activity relationship modeling of dopamine D(1) antagonists using comparative molecular field analysis, genetic algorithms-partial least-squares, and K nearest neighbor methods” (J Med Chem, 1999).

Molecular target: D(1A) dopamine receptor (Rattus norvegicus) (UniProt P18901)
Conditions: Striatum
Description: Affinity towards dopamine receptor D1 in rat corpus striatum tissue.

Sequence of D(1A) dopamine receptor (Rattus norvegicus) (P18901 whole entry): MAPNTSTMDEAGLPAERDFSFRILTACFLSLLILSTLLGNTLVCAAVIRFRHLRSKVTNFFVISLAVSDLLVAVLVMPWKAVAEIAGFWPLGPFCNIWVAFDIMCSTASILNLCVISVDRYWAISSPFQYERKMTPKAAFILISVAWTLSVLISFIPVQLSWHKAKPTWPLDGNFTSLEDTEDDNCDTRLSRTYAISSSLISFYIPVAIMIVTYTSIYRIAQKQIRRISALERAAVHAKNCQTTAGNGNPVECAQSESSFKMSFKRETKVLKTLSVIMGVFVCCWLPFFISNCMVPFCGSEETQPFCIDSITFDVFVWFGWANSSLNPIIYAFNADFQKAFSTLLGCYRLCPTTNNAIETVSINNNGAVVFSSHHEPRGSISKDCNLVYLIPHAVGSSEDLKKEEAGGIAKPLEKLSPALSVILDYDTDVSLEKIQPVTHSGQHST

SMILES | -Log K0.5
CNC1CCc2ccc(O)cc2C1c1ccccc1 (stereo not given) | 5.46
Cc1cccc(C)c1C1c2cc(O)c(Cl)cc2CCN1C (stereo not given) | 8.43
CN1CCc2ccc(O)cc2C1c1ccccc1 (stereo not given) | 6.37
NC1CCc2ccc(O)cc2C1c1ccccc1 (stereo not given) | 5.53
CN1CCc2ccccc2C2c3cc(O)c(I)cc3CCC21 (stereo not given) | 5.96
CN1CCc2cc(Cl)c(O)cc2C2c3ccccc3CCC21 (stereo not given) | 8.3
Oc1cc2c(cc1Cl)CCN1CCc3ccccc3C21 (stereo not given) | 5.68
CCCNC1CCc2ccc(O)cc2C1c1ccccc1 (stereo not given) | 6.02
CN(C)C1CCc2ccc(O)cc2C1c1ccccc1 (stereo not given) | 5.85
CCCN(C)C1CCc2ccc(O)cc2C1c1ccccc1 (stereo not given) | 5.82

Continued, values first:

-Log K0.5 | SMILES
8.43 | Cc1ccccc1C1c2cc(O)c(Cl)cc2CCN1C (stereo not given)
7.05 | CCCN1CCc2cc(Cl)c(O)cc2C1c1ccccc1 (stereo not given)
8.43 | CN1CCc2cc(Cl)c(O)cc2C1c1ccccc1Cl (stereo not given)
7.43 | CN(C)c1ccccc1CCN1CCc2cc(Cl)c(O)cc2C(c2ccccc2)C1 (stereo not given)
6.86 | CNCCCCCCN1CCc2cc(Cl)c(O)cc2C(c2ccccc2)C1 (stereo not given)
9.4 | CN1CCc2cc(Cl)c(O)cc2[C@@H](c2ccccc2)C1
7.97 | CN1CCc2cc(Br)c(O)cc2C1c1ccccc1 (stereo not given)
8.38 | Cc1cccc(C2c3cc(O)c(Cl)cc3CCN2C)c1 (stereo not given)
6.94 | CN(C)CCCCCCN1CCc2cc(Cl)c(O)cc2C(c2ccccc2)C1 (stereo not given)
8.56 | CC(C)c1ccccc1C1c2cc(O)c(Cl)cc2CCN1C (stereo not given)
8.28 | Cc1ccc(C2c3cc(O)c(Cl)cc3CCN2C)cc1 (stereo not given)
8 | Cc1cccc(C2c3cc(O)c(Cl)cc3CCN2C)c1C (stereo not given)
8.28 | CN1CCc2cc(Cl)c(O)cc2C1c1ccccc1 (stereo not given)
7.54 | CN(C)c1ccccc1/C=C/N1CCc2cc(Cl)c(O)cc2C(c2ccccc2)C1 (stereo not given)
7.24 | CN1CCc2cc(Cl)c(O)cc2C1Cc1ccccc1 (stereo not given)
